Assay results: US20240066119A1, “METHODS AND PLATFORMS FOR ELICITING AN IMMUNE RESPONSE IN THE TREATMENT OF CANCER AND COMPOSITIONS AND VACCINES RELATING THERETO” (University of Maryland, College Park, priority 2021, published 2024)

System: lymphocyte egress from lymphoid tissues
Experiment: Inhibition of lymphocyte trafficking with FTY720
Format: in vivo, C57BL6 mice
Settings: FTY720 1 mg/kg daily i.p., day 7 after vaccination
Procedure: Investigation of Adjuvant-Involvement on Split LN Treatments and Effect of Inhibition of Lymphocyte Trafficking on Antigen Specificity. To determine the influence of adjuvant (PolyIC) delivery in the Split LN treatment group on antigen-specificity as quantified by SIINFEKL tetramer, mice were treated as described above for Split LN treatment with soluble OVA and either PolyIC MPs or with PBS. Antigen-specific CD8^+ T cells in the blood and LNs were quantified using SIINFEKL tetramer as described above. Antigen-specific T cells were reported as a percentage of Live, CD8^+ cells. In studies to determine the effect of lymphocyte trafficking on local and systemic antigen-specificity, FTY720 (Sigma) was administered daily at 1 mg/kg via intraperitoneal injection one day prior to vaccination until the end of the experiment (7 days after vaccination). Following vaccination, antigen-specific CD8^+ T cells in the blood and LNs were quantified using SIINFEKL tetramer as described above and reported as a percentage of Live, CD8^+ cells and an overall number of cells from an identical acquisition volume (80 μL).

CCCCCCCCc1ccc(CCC(N)(CO)CO)cc1 [FTY720]
number of antigen-specific T cells in blood: greatly diminished
percentage of antigen-specific T cells in blood: did not significantly change
